Columns and labels:
[1] = biological target: T1, Amine oxidase [flavin-containing] B (Rattus norvegicus, UniProt P19643); assay: In vitro ability to inhibit Monoamine oxidase B activity in rat whole brain in vitro
T1 sequence (P19643 whole entry): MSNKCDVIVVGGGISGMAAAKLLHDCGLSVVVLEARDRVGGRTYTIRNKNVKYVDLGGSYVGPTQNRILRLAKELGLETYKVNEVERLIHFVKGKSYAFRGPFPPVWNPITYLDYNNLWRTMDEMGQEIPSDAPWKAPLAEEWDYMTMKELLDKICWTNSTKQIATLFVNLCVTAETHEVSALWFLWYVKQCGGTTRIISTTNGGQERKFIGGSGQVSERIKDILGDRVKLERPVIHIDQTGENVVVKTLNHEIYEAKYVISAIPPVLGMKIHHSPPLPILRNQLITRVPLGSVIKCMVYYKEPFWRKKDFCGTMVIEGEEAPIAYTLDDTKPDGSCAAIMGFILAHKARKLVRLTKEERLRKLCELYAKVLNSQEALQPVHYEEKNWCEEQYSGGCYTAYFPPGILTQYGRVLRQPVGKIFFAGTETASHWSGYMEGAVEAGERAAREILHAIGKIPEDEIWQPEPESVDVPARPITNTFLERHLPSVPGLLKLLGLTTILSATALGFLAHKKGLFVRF

[2] = biological target: T2, Amine oxidase [flavin-containing] A (Rattus norvegicus, UniProt P21396); assay: In vitro ability to inhibit Monoamine oxidase A activity in rat whole brain in vitro
T2 sequence (P21396 whole entry): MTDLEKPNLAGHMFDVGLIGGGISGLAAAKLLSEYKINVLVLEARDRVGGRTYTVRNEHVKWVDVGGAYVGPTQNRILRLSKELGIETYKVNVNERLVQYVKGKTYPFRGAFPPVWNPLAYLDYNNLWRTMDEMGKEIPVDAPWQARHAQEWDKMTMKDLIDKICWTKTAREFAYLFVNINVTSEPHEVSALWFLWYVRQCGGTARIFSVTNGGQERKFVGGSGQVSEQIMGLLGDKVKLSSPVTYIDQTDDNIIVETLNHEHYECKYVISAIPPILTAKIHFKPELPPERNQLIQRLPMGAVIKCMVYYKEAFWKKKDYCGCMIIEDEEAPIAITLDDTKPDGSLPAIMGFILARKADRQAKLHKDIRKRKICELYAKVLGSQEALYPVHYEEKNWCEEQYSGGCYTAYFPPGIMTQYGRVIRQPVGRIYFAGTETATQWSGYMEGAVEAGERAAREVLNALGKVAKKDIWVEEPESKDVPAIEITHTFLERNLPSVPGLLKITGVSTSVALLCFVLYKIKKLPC

Mus musculus = organism: Mus musculus; assay: Compound tested for the prevention of DSP- 4- induced depletion of noradrenaline (NA) in mouse hippocampus ex vivo; format: functional

Row | SMILES | IC50 [1] | IC50 [2] | NA restoration (Mus musculus)
1 | C#CCNNC/C=C/c1ccccc1 | 10.2 µM | 7.9 µM | -7.21%
2 | C#CCN(N)c1ccccc1 | 1.01 µM | 11.3 µM | -49.82%
3 | C#CCN(N)C/C=C/c1ccccc1 | 3.53 µM | 1.17 µM | -39.2%
4 | C#CCNNCc1ccccc1 | 2.84 µM | 0.362 µM | 31.74%
5 | C#CCN(N)CCc1ccccc1 | 0.0765 µM | 2.04 µM | 56.38%
6 | C#CCNNCCc1ccccc1 | 3.18 µM | 1.85 µM | 76.83%
7 | C#CCN(N)Cc1ccccc1 | 0.121 µM | 1.56 µM | 33.58%
8 | NNCCc1ccccc1 [PHENELZINE] | 0.0763 µM | 0.03 µM | 43.48%
9 | C#CCN(C)[C@H](C)Cc1ccccc1 [SELEGILINE] |  |  | 79.71%

From ChEMBL document CHEMBL1133809, “Synthesis of N-propargylphenelzine and analogues as neuroprotective agents” (Bioorg Med Chem Lett, 2001)
